Test results from PubChem BioAssay (NCI).
Where “and” joins values, the source holds several entries; their conditions need not be identical. Equal entries are not always repeated.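 Exposure lasted 48 hours, with cells grown in 96-well plates and compounds tested at five concentrations. Abbreviation: GI50, concentration required for 50% inhibition of growth. The concentration for full growth arrest is given as TGI.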

Tests used:
Experiment in all cases: growth of human tumour cells (NCI), 48 h
HCT-15 colon = test system: HCT-15 colon
HCT-116 colon = test system: HCT-116 colon
NCI-H226 lung = test system: NCI-H226 lung
UACC-62 melanoma = test system: UACC-62 melanoma
HS 578T breast = test system: HS 578T breast
SK-MEL-28 melanoma = test system: SK-MEL-28 melanoma
SK-MEL-2 melanoma = test system: SK-MEL-2 melanoma
OVCAR-3 ovarian = test system: OVCAR-3 ovarian
OVCAR-8 ovarian = test system: OVCAR-8 ovarian
CCRF-CEM leukemia = test system: CCRF-CEM leukemia

In the case of `COc1cc2c(Oc3ccc(NC(=O)C4(C(=O)Nc5ccc(F)cc5)CC4)cc3F)ccnc2cc1OCCCN1CCOCC1`, the GI50 (HCT-15 colon) is reported as 0.935 µM and 1.03 µM, the TGI (HCT-15 colon) is reported as 3.8 µM and 4.04 µM and the GI50 (HCT-116 colon) is reported as 0.609 µM and 0.586 µM. The TGI (HCT-116 colon) was 2.02 µM and 2.06 µM, the GI50 (NCI-H226 lung) was 0.491 µM and 0.662 µM and the TGI (NCI-H226 lung) was 2.07 µM and 3.96 µM. For the same molecule, the GI50 (UACC-62 melanoma) was 1.24 µM and 0.891 µM, the TGI (UACC-62 melanoma) was 2.72 µM and 2.48 µM and the GI50 (HS 578T breast) was 2.06 µM and 0.387 µM. The GI50 (SK-MEL-28 melanoma) was 1.12 µM and 1.25 µM, the TGI (SK-MEL-28 melanoma) was 2.47 µM and 2.69 µM and the GI50 (SK-MEL-2 melanoma) was 1.44 µM and 1.63 µM. The TGI (SK-MEL-2 melanoma) was 2.93 µM and 3.74 µM, the GI50 (OVCAR-3 ovarian) was 1.46 µM and 2.25 µM and the TGI (OVCAR-3 ovarian) was 3.36 µM and > 10 µM. The GI50 (OVCAR-8 ovarian) was 1.42 µM and 2.08 µM, the TGI (OVCAR-8 ovarian) was 4 µM and > 10 µM and the GI50 (CCRF-CEM leukemia) was 0.531 µM and 0.383 µM.
`Cc1cc(=O)oc2c(C3=NN(C=O)C(c4ccccc4)C3)c(O)ccc12` (stereo not drawn) was tested, and the TGI (HCT-15 colon) was greater than 100 µM, the TGI (HCT-116 colon) was greater than 100 µM and the TGI (NCI-H226 lung) was greater than 100 µM. The TGI (UACC-62 melanoma) was greater than 100 µM, the TGI (HS 578T breast) was greater than 93.2 µM and the TGI (SK-MEL-28 melanoma) was greater than 100 µM. For the same molecule, the TGI (SK-MEL-2 melanoma) was greater than 100 µM, the TGI (OVCAR-3 ovarian) was greater than 100 µM and the TGI (OVCAR-8 ovarian) was greater than 100 µM. For the same molecule, the TGI (CCRF-CEM leukemia) was greater than 100 µM.
`Cc1c2cnccc2c(C)c2c1c1cc(O)ccc1n2C(C)C` was tested, and the GI50 (HCT-15 colon) was 0.44 µM, the TGI (HCT-15 colon) was 4.2 µM and the GI50 (HCT-116 colon) was 0.964 µM. The TGI (HCT-116 colon) was 6.56 µM, the GI50 (NCI-H226 lung) was 2.82 µM and the TGI (NCI-H226 lung) was 11.6 µM. For the same molecule, the GI50 (UACC-62 melanoma) was 1.37 µM, the TGI (UACC-62 melanoma) was 4.28 µM and the GI50 (HS 578T breast) was 1.23 µM. For the same molecule, the TGI (HS 578T breast) was 4.55 µM, the GI50 (SK-MEL-28 melanoma) was 1.23 µM and the TGI (SK-MEL-28 melanoma) was 2.96 µM. It also gave a GI50 (SK-MEL-2 melanoma) of 0.797 µM, a TGI (SK-MEL-2 melanoma) of 2.58 µM and a GI50 (OVCAR-3 ovarian) of 2.04 µM. For the same molecule, the TGI (OVCAR-3 ovarian) was 6.86 µM, the GI50 (OVCAR-8 ovarian) was 0.972 µM and the TGI (OVCAR-8 ovarian) was 6.18 µM. For the same molecule, the GI50 (CCRF-CEM leukemia) was 1.33 µM and the TGI (CCRF-CEM leukemia) was 5.81 µM.
In the case of `Cc1cc(F)c(C(=O)Nc2cccc(-c3nncn3C(C)C)n2)cc1-n1cnc(C2CC2)c1`, the GI50 (HCT-15 colon) is reported as 15.6 µM, the TGI (HCT-15 colon) is reported as 96.4 µM and the GI50 (HCT-116 colon) is reported as 8.25 µM. It also gave a TGI (HCT-116 colon) greater than 100 µM, a GI50 (NCI-H226 lung) of 19.5 µM and a TGI (NCI-H226 lung) of 80.7 µM. For the same molecule, the GI50 (UACC-62 melanoma) was 14.1 µM, the TGI (UACC-62 melanoma) was 48 µM and the GI50 (HS 578T breast) was 26.6 µM. For the same molecule, the TGI (HS 578T breast) was greater than 100 µM, the GI50 (SK-MEL-28 melanoma) was 20.9 µM and the TGI (SK-MEL-28 melanoma) was 64.7 µM. It also gave a GI50 (SK-MEL-2 melanoma) of 23.9 µM, a TGI (SK-MEL-2 melanoma) of 58.1 µM and a GI50 (OVCAR-3 ovarian) of 12.5 µM. The TGI (OVCAR-3 ovarian) was greater than 100 µM, the GI50 (OVCAR-8 ovarian) was 18.3 µM and the TGI (OVCAR-8 ovarian) was 68 µM. For the same molecule, the GI50 (CCRF-CEM leukemia) was 21 µM and the TGI (CCRF-CEM leukemia) was greater than 100 µM.
Molecule `Nc1nc(N)c2c(n1)NC(c1sc(Cl)nc1Cl)CC(c1ccccc1)=N2` (stereo not drawn) has a GI50 (HCT-15 colon) of 3.05 µM, a TGI (HCT-15 colon) of 15.2 µM and a GI50 (HCT-116 colon) of 3.7 µM. For the same molecule, the TGI (HCT-116 colon) was 13.9 µM, the GI50 (NCI-H226 lung) was 13.7 µM and the TGI (NCI-H226 lung) was 35.1 µM. The GI50 (UACC-62 melanoma) was 3.05 µM, the TGI (UACC-62 melanoma) was 13.9 µM and the GI50 (HS 578T breast) was 2.44 µM. It also gave a TGI (HS 578T breast) of 11.1 µM, a GI50 (SK-MEL-28 melanoma) of 4.26 µM and a TGI (SK-MEL-28 melanoma) of 17.8 µM. The GI50 (SK-MEL-2 melanoma) was 2.98 µM, the TGI (SK-MEL-2 melanoma) was 10.9 µM and the GI50 (OVCAR-3 ovarian) was 3.6 µM. For the same molecule, the TGI (OVCAR-3 ovarian) was 13.7 µM, the GI50 (OVCAR-8 ovarian) was 4.8 µM and the TGI (OVCAR-8 ovarian) was 22.2 µM. The GI50 (CCRF-CEM leukemia) was 3.21 µM and the TGI (CCRF-CEM leukemia) was 16.9 µM.
For `CCn1cnc(C[C@H](NC(=O)[C@H](CCCCNC(=O)Nc2cc(C(F)(F)F)cc(C(F)(F)F)c2)NC(=O)Nc2cc(C(F)(F)F)cc(C(F)(F)F)c2)C(=O)OC)c1`, the GI50 (HCT-15 colon) was greater than 10 µM, the TGI (HCT-15 colon) was greater than 10 µM and the GI50 (HCT-116 colon) was 3.87 µM. The TGI (HCT-116 colon) was greater than 10 µM, the GI50 (NCI-H226 lung) was greater than 10 µM and the TGI (NCI-H226 lung) was greater than 10 µM. For the same molecule, the GI50 (UACC-62 melanoma) was greater than 10 µM, the TGI (UACC-62 melanoma) was greater than 10 µM and the GI50 (HS 578T breast) was 4.49 µM. For the same molecule, the TGI (HS 578T breast) was greater than 10 µM, the GI50 (SK-MEL-28 melanoma) was 6.62 µM and the TGI (SK-MEL-28 melanoma) was greater than 10 µM. For the same molecule, the GI50 (SK-MEL-2 melanoma) was greater than 10 µM, the TGI (SK-MEL-2 melanoma) was greater than 10 µM and the GI50 (OVCAR-3 ovarian) was 3.32 µM. It also gave a TGI (OVCAR-3 ovarian) greater than 10 µM, a GI50 (OVCAR-8 ovarian) of 5.02 µM and a TGI (OVCAR-8 ovarian) greater than 10 µM. It also gave a GI50 (CCRF-CEM leukemia) of 3.04 µM and a TGI (CCRF-CEM leukemia) greater than 10 µM.
Work on `CC/C=C\C[C@H]1C/C=C2/C(=O)C=C[C@H]2C/C=C\CCCC(=O)O1` yielded a GI50 (HCT-15 colon) of 1.5 µM, a TGI (HCT-15 colon) of 7.04 µM and a GI50 (HCT-116 colon) of 1 µM. For the same molecule, the TGI (HCT-116 colon) was 2.55 µM, the GI50 (NCI-H226 lung) was 3.4 µM and the TGI (NCI-H226 lung) was 10.8 µM. The GI50 (UACC-62 melanoma) was 1.78 µM, the TGI (UACC-62 melanoma) was 7.94 µM and the GI50 (HS 578T breast) was 10.3 µM. The TGI (HS 578T breast) was greater than 50 µM, the GI50 (SK-MEL-28 melanoma) was 3.1 µM and the TGI (SK-MEL-28 melanoma) was 11.4 µM. It also gave a GI50 (SK-MEL-2 melanoma) of 3.77 µM, a TGI (SK-MEL-2 melanoma) of 12.6 µM and a GI50 (OVCAR-3 ovarian) of 1.65 µM. For the same molecule, the TGI (OVCAR-3 ovarian) was 5.94 µM, the GI50 (OVCAR-8 ovarian) was 2 µM and the TGI (OVCAR-8 ovarian) was 11.7 µM. The GI50 (CCRF-CEM leukemia) was 1.67 µM and the TGI (CCRF-CEM leukemia) was 15.3 µM.
With `COc1ccc(-n2cc(-c3cc(OC)c(OC)c(OC)c3)nc2SCc2ccc(Cl)cc2)cc1OC` the GI50 (HCT-15 colon) was 30.5 µM, the TGI (HCT-15 colon) was greater than 100 µM and the GI50 (HCT-116 colon) was greater than 100 µM. The TGI (HCT-116 colon) was greater than 100 µM, the GI50 (NCI-H226 lung) was greater than 100 µM and the TGI (NCI-H226 lung) was greater than 100 µM. The GI50 (UACC-62 melanoma) was 35.5 µM, the TGI (UACC-62 melanoma) was greater than 100 µM and the GI50 (HS 578T breast) was 66.5 µM. The TGI (HS 578T breast) was greater than 100 µM, the GI50 (SK-MEL-28 melanoma) was greater than 100 µM and the TGI (SK-MEL-28 melanoma) was greater than 100 µM. The GI50 (SK-MEL-2 melanoma) was greater than 100 µM, the TGI (SK-MEL-2 melanoma) was greater than 100 µM and the GI50 (OVCAR-3 ovarian) was greater than 100 µM. For the same molecule, the TGI (OVCAR-3 ovarian) was greater than 100 µM, the GI50 (OVCAR-8 ovarian) was greater than 100 µM and the TGI (OVCAR-8 ovarian) was greater than 100 µM. It also gave a GI50 (CCRF-CEM leukemia) greater than 100 µM and a TGI (CCRF-CEM leukemia) greater than 100 µM.
